Source: patent US20230233533A1, “COMPOSITIONS, METHODS OF TREATING AND PREVENTING FUNGAL INFECTIONS, AND METHODS OF INHIBITING PRP8 INTEIN EXPRESSION” (Health Research, Inc., priority 2020, published 2023)
In brackets after ≈: the same amount, converted by molar mass.

Columns and labels:
trypsin = test: Trypsin protease inhibition (Abz FRET substrate); format: biochemical; details: compound at 400 μM
Procedure: Trypsin and papain protease inhibition—An Abz FRET substrate (Abz-RRRRSAG-nTyr) developed previously (Li et al., “Existing Drugs as Broad-Spectrum and Potent Inhibitors for Zika Virus by Targeting NS2B-NS3 Interaction,” Cell Research 27(8):1046-1064 (2017), which is hereby incorporated by reference in its entirety) was used as the substrate for inhibition of trypsin and papain proteases. In black and clear-bottom 96-well plates, 1 μg trypsin (Sigma-Aldrich) was incubated with DMF or compounds at 400 μM at 25° C. for 30 min in a 70 μl reaction buffer containing 20 mM Tris, pH 8.0, 100 mM NaCl, 5% Glycerol, and 0.05% CHAPS. For papain, 1 μg Papain (Sigma-Aldrich) was incubated with compounds at 400 μM at 25° C. for 30 min in a 70 μl reaction buffer composed of 1.1 mM EDTA, 0.067 mM β-mercaptoethanol, 5.5 mM cysteine. […]

[1] = In vivo toxicity studies in adult BALB/c mice
Procedure: Mouse 1: Oral, VC—125 ul of formulation without drug is given per mouse by oral gavage
Mouse 3: IP, VC—60 ul of the formulation without the drug is injected intraperitoneally
A total of 5 doses were given (one/day). Weight, posture, movement, activity, paralysis, seizure, and fur nature were monitored in the morning and evening.

C. neoformans strain H99 = test: Minimum fungicidal concentration (MFC) determination; format: cell-based; details: Cryptococcus neoformans
Procedure: […] cells (100 ul of 0.5×10^5/ml) in log phase were added to each well. […] Then, the cultured cells in selected wells were first suspended by gentle pipetting. 50 μl of the cell culture suspension from each well was plated onto the Sabouraud dextrose agar (SDA) plates and further incubated for 48 h. MFC is defined as the minimum concentration where there is no growth after plating to the SDA plates. […] To determine minimum fungicidal concentration (MFC), the cultured cells in selected wells were first suspended by gentle pipetting. Then 50 ul of the cell culture suspension from each well was plated onto the Sabouraud dextrose agar (SDA) plates and further incubated for 48 h. MFC is defined as the minimum fungicidal concentration where there is no growth after plating on the SDA plates.

## O=C(Nc1ccc(F)cc1)c1nnsc1S(=O)(=O)c1ccc(Cl)cc1 [6G-318S, 5-[(4-chlorophenyl)sulfonyl]-N-(4-fluorophenyl)-1,2,3-thiadiazole-4-carboxamide]
trypsin
  inhibition of trypsin protease activity: neither 6G-318S, 6G-319S, nor cisplatin significantly inhibited
[1]; 50 mg/kg intraperitoneally
  observed condition of mouse: died on day 2
[1]; mouse, in vivo, po, 5 days
  dose with no observed toxicity / safe dose, oral: 200 mg/kg
C. neoformans strain H99
  MFC: 1.25 µg/mL (≈ 3.14 µM)
